# According to PubChem BioAssay (NCI):
# “And” between values parts separate entries of the source, which are not always exact repeats. Identical values can stand only once.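 Results reflect a 48-hour exposure of cells in 96-well plates to compound at five concentrations. Here, GI50 denotes the concentration required for 50% inhibition of growth. TGI denotes the concentration required for complete inhibition of growth.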
# Tests used:
# Assay in all cases: NCI anticancer screen, dose series, 48 h
# SW-620 colon = test system: SW-620 colon
# RXF 393 renal = test system: RXF 393 renal
# IGROV1 ovarian = test system: IGROV1 ovarian
# A549 NSCLC = test system: A549 NSCLC
# SN12C renal = test system: SN12C renal
# CCRF-CEM leukemia = test system: CCRF-CEM leukemia
# NCI-H460 lung = test system: NCI-H460 lung
# HOP-92 NSCLC = test system: HOP-92 NSCLC
# SK-OV-3 ovarian = test system: SK-OV-3 ovarian
# CAKI-1 renal = test system: CAKI-1 renal
Compound,GI50 (SW-620 colon) [µM],GI50 (RXF 393 renal) [µM],TGI (RXF 393 renal),GI50 (IGROV1 ovarian) [µM],TGI (IGROV1 ovarian),GI50 (A549 NSCLC) [µM],TGI (A549 NSCLC),GI50 (SN12C renal) [µM],TGI (SN12C renal),GI50 (CCRF-CEM leukemia) [µM],TGI (CCRF-CEM leukemia),GI50 (NCI-H460 lung) [µM],TGI (NCI-H460 lung) [µM],GI50 (HOP-92 NSCLC) [µM],TGI (HOP-92 NSCLC) [µM],GI50 (SK-OV-3 ovarian) [µM],TGI (SK-OV-3 ovarian) [µM],GI50 (CAKI-1 renal) [µM],TGI (CAKI-1 renal),TGI (SW-620 colon) [µM]
Cc1cc(Cl)ccc1Nc1nc(C(F)(F)F)ccc1C(=O)N/N=C/c1ccc([N+](=O)[O-])cc1,1.07,0.781,3.22 µM,2.21,12.9 µM,1.07,5.54 µM,2.92,> 100 µM,0.144,0.526 µM,2.28,7.45,1.34,5.47,2.16,7.27,2.24,11.4 µM,
CC(C)c1cccc(C(C)C)c1NC(=O)/C(CC(=O)CC(c1ccccc1)c1c(O)c2ccccc2oc1=O)=N/O (centres undefined),,,> 100 µM,,> 100 µM,,> 100 µM,,> 100 µM,,> 100 µM,,> 100,,> 100,,> 100,,> 100 µM,> 100
OC1(c2ccccc2)OC(C#Cc2ccccc2)(c2ccccc2)c2ccccc21 (centres undefined),,,5.58 µM,,24.1 µM,,14.8 µM,,10.2 µM,,> 100 µM,,17.7,,13.2,,5.04,,13.9 µM,15.4
COc1cc(-c2cn(-c3ccc(Cl)c(Cl)c3)c(=O)n2C(C)=O)cc(OC)c1OC,12.9,3.34,14.9 µM,5.34,17.6 µM,15,41 µM,12.3,31.1 µM,16.1,59.9 µM,10.5,25.1,3.42,16.8,15.4,33.3,11.5,33.5 µM,29.8
Cc1cc2c(cc1C)N(C(=O)CCl)CCN2C(=O)CCl,0.204,0.237,0.668 µM,0.62,> 19.9 µM,2.09,4.29 µM,0.754,2.67 µM,0.282,0.856 µM,1.7,3.33,1.6,3.2,1.9,3.98,1.78,4.08 µM,0.42
Nc1ccccc1C#C/C=C\C#Cc1ccccc1[N+](=O)[O-],0.942,2.07,9.06 µM,10.9,79.8 µM,4.42,21.3 µM,3.18,13.7 µM,3.75,18.1 µM,3.59,83.1,31.7,> 100,9.26,60.9,3.28,23 µM,88.8
COC1OC(CO)C(O)C1N (centres undefined),,,> 100 µM,,> 100 µM,,> 100 µM,,> 100 µM,,> 100 µM,,> 100,,> 100,,> 100,,> 100 µM,> 100
Cc1sc2nc3c4ccccc4c(NCCCN(C)C)nn3c(=O)c2c1C,1.67,5.2,19.8 µM,5.3,24.6 µM,2.52,20.4 µM,5.14,21.7 µM,6.13,17.2 µM,1.08,5.35,5.57,20,13.4,26.3,8.87,23.5 µM,4.55
CC(CCC(=O)O)C(=O)O (centres undefined),,,> 100 µM,,> 100 µM,,> 100 µM,,> 100 µM,,> 100 µM,,> 100,,> 100,,> 100,,> 100 µM,> 100
CC1=C(C(=O)Nc2cccc(Cl)c2)C(c2ccccc2F)C(C(=O)Nc2cccc(Cl)c2)=C(C)N1,,,22.4 µM,,47.3 µM,,40.6 µM,,23 µM,,26.2 µM,,24.1,,8.7,,55.5,,35.9 µM,64.6
Cc1ccc2nc(-c3ccc(N(C)C)c(Br)c3)cn2c1,42.3,> 100,> 100 µM,,,> 100,> 100 µM,> 100,> 100 µM,6.52,> 100 µM,4.18,> 100,44.4,> 100,> 100,> 100,> 100,> 100 µM,> 100
CN(C)CC1CCC/C1=N\O (centres undefined),,,> 100 µM,,> 100 µM,,,,> 100 µM,,> 100 µM,,> 100,,> 100,,> 100,,> 100 µM,> 100
COc1ccc(C2=NN(C=O)C(c3cccc(Nc4ccnc5cc(Cl)ccc45)c3)C2)cc1 (centres undefined),1.73,1.66,7.61 µM,3.71,> 100 µM,4.63,> 100 µM,4.45,> 100 µM,2.14,13.1 µM,2.73,15.7,3.41,> 100,3.33,23.3,,,13.2
C/C(CCc1ccccc1)=N\NC(N)=S,,,> 100 µM,,> 100 µM,,> 100 µM,,> 100 µM,,> 100 µM,,> 100,,> 100,,> 100,,> 100 µM,> 100
CCOc1cc(/C=N\Nc2nnc(C)n2N)c(C)cc1N(CCCl)CCCl,0.663,1.2,17.7 µM,1.96,> 100 µM,0.638,> 20.6 µM,1.07,27.3 µM,0.655,32.5 µM,0.843,31.5,0.163,1.12,2.28,8.24,1.31,9.44 µM,> 57.3
O=C(O)c1ccc2c(c1)CCCC(c1ccc(Cl)cc1Cl)=C2c1ccc(O[C@H]2CCN(CCCF)C2)cc1,14.3,3.38,17 µM,13.8,35.6 µM,6.7,24.1 µM,15.2,31 µM,10.8,27.6 µM,9.27,23.8,11.3,25.1,16.7,30.8,11.5,24 µM,28.9

Compound,GI50 (SW-620 colon) [µM],GI50 (RXF 393 renal) [µM],TGI (RXF 393 renal),GI50 (IGROV1 ovarian) [µM],TGI (IGROV1 ovarian),GI50 (A549 NSCLC) [µM],TGI (A549 NSCLC),GI50 (SN12C renal) [µM],TGI (SN12C renal),GI50 (CCRF-CEM leukemia) [µM],TGI (CCRF-CEM leukemia),GI50 (NCI-H460 lung) [µM],TGI (NCI-H460 lung) [µM],GI50 (HOP-92 NSCLC) [µM],TGI (HOP-92 NSCLC) [µM],GI50 (SK-OV-3 ovarian) [µM],TGI (SK-OV-3 ovarian) [µM],GI50 (CAKI-1 renal) [µM],TGI (CAKI-1 renal),TGI (SW-620 colon) [µM]
COC(=O)c1ccccc1NC(=O)C(=O)NNC(=O)c1ccncc1,,,> 100 µM,,> 100 µM,,> 100 µM,,> 100 µM,,> 100 µM,,> 100,,> 100,,> 100,,> 100 µM,> 100
C=C1C(=O)O[C@H]2[C@H]1CC/C(COC(=O)c1cc3cc(Cl)ccc3[nH]1)=C\CC[C@@]1(C)O[C@@H]21,1.4,1.38,2.72 µM,1.38,2.91 µM,1.69,3.31 µM,1.7,3.57 µM,0.394,1.61 µM,1.72,3.53,1.25,2.76,10.2,21.8,1.19,2.42 µM,3.37
CC[C@]1(O)C(=O)OCc2c1cc1n(c2=O)Cc2cc3c(N)cccc3nc2-1,,,> 100 µM,,> 100 µM,,> 100 µM,,> 100 µM,,> 100 µM,,> 100,,> 100,,> 100,,> 100 µM,> 100
N#CCCN(CCC#N)c1ccc(C(Sc2ccccc2)C(NC(=O)c2cc([N+](=O)[O-])ccc2Cl)C(=O)Sc2ccccc2)cc1 (centres undefined),3.77,0.415,5.81 µM and 3.28 µM,1.49,8.99 µM and 4.2 µM,0.954,6.47 µM and 13.2 µM,,4.54 µM and 6.19 µM,,0.765 µM and 0.479 µM,,16.8,,18.7,7.8,13.2,,5.71 µM and 6.5 µM,14.3
CCn1c(-c2nonc2N)nc2c(C#CC(C)(C)O)nc(OCCNC)cc21,6.68,4.13,11 µM,8.13,> 25 µM,8.27,> 25 µM,7.84,> 25 µM,7.25,> 25 µM,7.83,> 25,4.59,14.5,5.74,> 25,> 18.2,> 25 µM,> 25
COc1ccc2cc(-c3c(-c4ccncc4)nc(-c4ccc(S(C)(=O)=O)cc4C)n3C)ccc2c1,9.68,3.99,20.7 µM,7.47,> 25 µM,9.04,> 25 µM,8.22,> 25 µM,8.46,> 25 µM,7.77,> 25,5.16,24.4,6.5,16.7,8.73,> 25 µM,> 25
Fc1cc2[nH]ncc2c2c3c(c(-c4cn[nH]c4C(F)(F)F)nc12)C1CCC3C1 (centres undefined),0.982,0.345,1.12 µM,0.994,3.77 µM,1.07,4.41 µM,0.96,5.18 µM,1.23,> 50 µM,1.15,5.5,0.885,3.04,0.729,2.26,0.602,3.51 µM,5.13
Cc1ccc(-c2csc(NC(=O)CN3CCN(c4cc5c(cc4F)c(=O)c(C(=O)O)cn5C4CC4)CC3)n2)cc1,0.95,0.633,17.8 µM,0.739,17 µM,0.433,13.9 µM,0.413,15.4 µM,0.569,> 100 µM,0.368,17.1,1.13,5.13,1.3,5.52,,,> 100
CCN(CC)C(=S)Oc1cc2oc(=O)cc(C)c2cc1Cl,,,> 100 µM,,> 100 µM,,> 100 µM,,> 100 µM,,> 100 µM,,> 100,,> 100,,,,> 100 µM,> 100
O=[N+]([O-])c1cnn(C2=CNc3ccccc3N=C2)c1,,,> 100 µM,,,,> 100 µM,,> 100 µM,,> 100 µM,,> 100,,> 100,,> 100,,,
O=C(O)C1CCCCC1C(=O)O.[NH-]C1CCC1.[NH2-].[Pt+2] (centres undefined),14.4,52.8,> 100 µM,57.5,> 100 µM,30.7,> 100 µM,11.8,26.7 µM,,,22.7,> 100,19.4,44,48.7,> 100,2.61,17.4 µM,44.5
CCn1c2ccc(O)cc2c2c(C)c3c[n+](C)ccc3c(C)c21,3.85,5.58,> 100 µM,,,3.81,> 100 µM,0.152,3.03 µM,5.7,> 100 µM,0.752,11,2.07,30.3,7.41,83.8,65.2,> 100 µM,> 100
CC(=O)NC(CCCCNC(=O)NCCCl)C(=O)NCc1ccccc1 (centres undefined),,,> 100 µM,,,,> 100 µM,,> 100 µM,,> 100 µM,,> 100,,> 100,,,,> 100 µM,> 100
NCCCCNc1ccc2c(=O)[nH][nH]c(=O)c2c1,,,> 100 µM,,> 100 µM,,> 100 µM,,> 100 µM,,> 100 µM,,,,> 100,,> 100,,> 100 µM,> 100
CN1CC[C@]2(C)c3ccc(O)cc3CC3CCCC1C32C (some centres undefined),,,> 100 µM,,> 100 µM,,> 100 µM,,> 100 µM,,> 100 µM,,> 100,,> 100,,> 100,,> 100 µM,
CCN(CC)C(=S)SC,,,> 100 µM,,> 100 µM,,> 100 µM,,> 100 µM,,> 100 µM,,> 100,,> 100,,> 100,,,> 100
